The results in this text go back to paper PMC5526877, “Structure of Chorismate Mutase-like Domain of DAHPS from Bacillus subtilis Complexed with Novel Inhibitor Reveals Conformational Plasticity of Active Site” (Scientific Reports, 2017).

The stoichiometry N is the number of molecules, sites or subunits per partner or assembly.

Counter-ions that a name gives are not always drawn.

Series [1] has as its target T1, BsCM_2 (chorismate mutase type II N-terminal domain of DAHPS) (Bacillus subtilis, UniProt P39912). Kind of series: co-crystal structure at […] Å and ITC; also competitive enzyme inhibition (Ki […], IC50 […]). The class given is binding. Also on record: gene aroA; N-terminal chorismate mutase-like domain of DAHPS (306 bp fragment), homodimer. Particulars: read-out: Dissociation constant, K D.

In series [2] the target is T1, BsCM_2 (chorismate mutase type II N-terminal domain of DAHPS). In words: crystal structure at […] Å (citrate from crystallization buffer) and ITC. Further details: gene aroA; N-terminal chorismate mutase-like domain of DAHPS (306 bp fragment), homodimer. The class given is binding.
Series [3] shares this target. In words: ITC; also Michaelis-Menten kinetics (Km […]). The class given is binding. Further details: gene aroA; N-terminal chorismate mutase-like domain of DAHPS (306 bp fragment). Particulars: read-out: Dissociation constant, K D. In general terms: Isothermal titration calorimetry measures the heat released or taken up as one component is titrated into another.
Series [4] deals with the molecule itself. In words: crystal structure; BsCM_2 co-crystallised with chlorogenic acid (1.8 Å, P21, two monomers per asymmetric unit) and with citrate from the buffer (1.9 Å, P1, four monomers per asymmetric unit); sitting drop, 1 M ammonium sulphate, 0.1 M potassium sodium tartrate, 0.1 M sodium citrate pH 5.8, 20 °C; dimer interface analysed with PISA.

Regarding `O=C(/C=C/c1ccc(O)c(O)c1)O[C@@H]1C[C@](O)(C(=O)O)C[C@@H](O)[C@H]1O` [CGA, chlorogenic acid], the Kd in series [1] is 480 µM.
With `O=C(O)CC(O)(CC(=O)O)C(=O)O` [CIT, citrate], the Kd in series [2] worked out at 600 µM.
With `C=C(O[C@@H]1C=C(C(=O)O)C=C[C@H]1O)C(=O)O` [chorismate], the Kd in series [3] stood at 725 µM.

B1: Chorismate mutase type II-like N-terminal domain (AroQ class) of 3-deoxy-D-arabino-heptulosonate-7-phosphate synthase (DAHPS) from Bacillus subtilis (domain or fragment, Bacillus subtilis strain 3256)
chain: MSNTELELLRQKADELNLQILKLINERGNVVKEIGKAKEAQGVNRFDPVRERTMLNNIIENNDGPFENSTIQHIFKEIFKAGLELQEEDH
notes: the forward primer encodes MSNTEL from the start codon, the reverse primer encodes ...QEEDH followed by a stop codon; residues 1-88 are spoken of in the structures; strain 3256 may differ; also called BsCM_2; CM_2 domain; source: E. coli BL21 (DE3), pET28c/BsCM_2, purified (HisTrap Ni-NTA, Superdex 75 SEC)
For the molecule B1, the “stoichiometry N” value in series [4] is 2.
